Assay results as given in patent US20230322743A1, “NOVEL […] DERIVATIVES HAVING PRODRUG PROPERTIES” (Compass Pathfinder Limited, priority 2020, published 2023).
Values after ≈ are worked out from the molar mass of the structure shown.

Experiments:
Micro shake flask LogD = conditions: for Mean LogD: Octanol:PBS 1:9 at pH 7.4, 10 μM, six replicates
Protocol: 6 replicates of each test compound were incubated at 10 μM in a 1:9 ratio of Octanol:PBS at pH 7.4. Following a two hour incubation at room temperature shaking at 600 rpm, the incubation plate was centrifuged for 15 minutes to separate the layers and then two aliquots were removed from the PBS layer. The first was left neat and the second was diluted 10-fold to give dilute samples. Internal standards were added to both the calibration curve and the PBS incubation samples for analysis on LC MS/MS. […] 5,6-MDAI-tryptophanamide and 3,4-MDA-tryptophanamide were prepared as hemioxalate salts.
LogD was measured as the concentration in the PBS layer against the generated calibration curve relative to the starting concentration of 10 μM. All 6 replicates of the neat samples were averaged to give one value for each, with the same calculation performed for the dilute sample values.
6 replicates of each test compound were incubated at 10 μM in a 1:9 ratio of Octanol:PBS at pH 7.4. Following a two hour incubation at room temperature shaking at 600 rpm, the incubation plate was centrifuged for 15 minutes to separate the layers and then two aliquots were removed from the PBS layer. The first was left neat and the second was diluted 10-fold to give dilute samples.

[1] = Kinetic turbidimetric solubility assay; conditions: for Solubility: Example 12, 0.01 M phosphate buffered saline pH 7.4, 2% DMSO, room temperature, maximum concentration tested 200 μM, test compounds as hemioxalate salts; for solubility at 5 min: phosphate buffered saline, pH 7.4, aqueous buffer, kinetic from dmso stock
[2] = tested on: monoamine neurotransmitter release; experiment: Microdialysis of nucleus accumbens with HPLC analysis of dopamine, noradrenaline and serotonin; assay type: in vivo, Male Sprague Dawley rats; conditions: rat, PO, 5 mg/kg
[3] = tested on: behavioural measures of serotonin syndrome; experiment: Behavioural observations for measures of serotonin syndrome in rats; conditions: rat, PO, 5 mg/kg; scored post-treatment up to 2 hours
locomotor activity = experiment: Locomotor activity in rats following oral dosing (EthoVision tracking); assay type: in vivo, Male Sprague Dawley rats; conditions: rat, 5 mg/kg
rats = conditions: previously shown, Baumann et al. 2008; cited from earlier work
[4] = Example 13, glycinamides as hemioxalate salts
[5] = Example 12, test compounds as hemioxalate salts

| Compound | Mean LogD (Micro shake flask LogD; [4]) | Solubility [1] [µM] | Serotonin levels in nucleus accumbens, compared to the vehicle group ([2]; 2 hour period following dosing) | Magnitude of effect on serotonin levels compared to MDMA ([2]; nucleus accumbens) | Mean LogD (Micro shake flask LogD; [5]) | Observations (approximate timecourse), behaviours significantly increased vs vehicle [3] | solubility at 5 min [1] [µM] | also measured |
| --- | --- | --- | --- | --- | --- | --- | --- | --- |
| CC(Cc1ccc2c(c1)OCO2)NC(=O)CN (centres unmarked) [3,4-MDA-glycinamide] | 1.08 | – | – | – | – | – | – | LogD compared with that of MDMA (Micro shake flask LogD; Example 13, Octanol:PBS at pH 7.4): slightly greater than that of MDMA |
| CC(Cc1ccc2c(c1)OCO2)NC(=O)[C@@H](N)Cc1c[nH]c2ccccc12 (some centres unmarked) [3,4-MDA-tryptophanamide] | – | >200 | significant increases | smaller in magnitude compared to MDMA | 1.97 | None | – | Dopamine levels in nucleus accumbens, compared to the vehicle group ([2]; 2 hour period following dosing): significant increases; Noradrenaline levels in nucleus accumbens, compared to the vehicle group ([2]; 2 hour period following dosing): significant increases; Magnitude of effects on dopamine and noradrenaline levels compared to MDMA ([2]; nucleus accumbens): smaller in magnitude compared to MDMA |
| CC(Cc1ccc2c(c1)OCO2)N(C)C(=O)CN (centres unmarked) [3,4-MDMA-glycinamide] | 0.66 | – | – | – | – | – | – | – |
| N[C@@H](Cc1c[nH]c2ccccc12)C(=O)NC1Cc2cc3c(cc2C1)OCO3 [5,6-MDAI-tryptophanamide] | – | >200 | significant increases | smaller in magnitude compared to MDMA | 2.31 | None | – | – |
| CNC(C)Cc1ccc2c(c1)OCO2 (centres unmarked) [MDMA, 3,4-Methylenedioxy-N-methylamphetamine] | – | – | – | – | – | Flattened posture (~0-40 mins) and hind limb | ≥ 200 | Effect on locomotor activity (significant change in total distance travelled vs vehicle) (locomotor activity; 0-60 mins): ↑↑↑ (↑↑↑, p < 0.001); Effect on locomotor activity (significant change in total distance travelled vs vehicle) (locomotor activity; 0-120 mins): ↑↑↑ (↑↑↑, p < 0.001); Effect on locomotor activity (significant change in total distance travelled vs vehicle) (locomotor activity; 60-120 mins): ↑↑↑ (↑↑↑, p < 0.001); logD at 2 h (Micro shake flask LogD; pH 7.4): 0.57; Behavioural measures of serotonin syndrome (rats): induce; Locomotion (rats): hyperlocomotion; Monoamine neurotransmitter levels (rats): elevations |
| COC(=O)C1=C(C)NC(C)=C(C(=O)OCCN(C)Cc2ccccc2)C1c1cccc([N+](=O)[O-])c1 (centres unmarked) [Nicardipine, reference compound] | – | – | – | – | – | – | 22.1 (≈ 10.6 µg/mL) | – |
